According to paper doi:10.1101/2025.07.30.667614, “Steric control of signaling bias in the immunometabolic receptor GPR84” (bioRxiv, 2025):
Like-named read-outs stand apart in the source and are kept apart here.

Legend:
[1] = target: T1, GPR84 S169A (GPR84-Gi2α fusion protein) (Homo sapiens, UniProt Q9NQS5, S169A); experiment: [35S]GTPγS binding assay; format: biochemical; conditions: for fold reduced potency compared to wild type: Ser169Ala; for Emax: read-out: Emax ± SEM
T1 construct: FLAG (N); Gαi2-Cys352Ile (fusion partner) (C); expressed in transfected cells
Experimental: (§1) Membranes were generated from Flp-In™ T-REx™ 293 cells following 100 ng/ml doxycycline treatment to induce receptor expression. Cells were washed with ice-cold phosphate-buffered saline (PBS), removed from dishes by scraping and centrifuged at 1,800 x g for 5 min at 4 °C. Pellets were resuspended in TE buffer (10mM Tris-HCl, 0.1 mM EDTA; pH 7.4) containing a protease inhibitor mixture and homogenized with a 5 ml hand-held homogenizer. Samples were centrifuged at 450 x g for 5 min at 4 °C and the supernatant was further centrifuged at 90,000 x g for 45 min at 4 °C. The resulting pellet was resuspended in TE buffer and protein content was assessed using a BCA protein assay kit.
(§2) Prepared membrane protein (3 μg per well) was incubated in assay buffer (20 mM HEPES, 5 mM MgCl2, 160 mM NaCl, 0.05 % fatty-acid-free bovine serum albumin; pH 7.4) containing the indicated ligand concentrations. The reaction was initiated by addition of [^35S]GTPγS (100 nCi per reaction) with 1 μM GDP, and incubated at 30 °C for 60 min. The reaction was terminated by rapid vacuum filtration through GF/C glassfibre filter-bottom 96-well microplates using a UniFilter FilterMate Harvester (PerkinElmer). Unbound radioligand was removed from filters by three washes with ice-cold PBS. Ultima Gold™ XR was added to dried filters, and [^35S]GTPγS binding quantified by liquid scintillation spectroscopy.

[2] = target: T2, GPR84 W360A (GPR84-Gi2α fusion protein) (Homo sapiens, UniProt Q9NQS5, W360A); experiment: [35S]GTPγS binding assay; format: biochemical; conditions: for fold reduced potency compared to wild type: Trp360Ala; for Emax: read-out: Emax ± SEM
T2 construct: FLAG (N); Gαi2-Cys352Ile (fusion partner) (C); expressed in transfected cells
Experimental: as §1, §2

[3] = target: T3, GPR84 L336A (GPR84-Gi2α fusion protein) (Homo sapiens, UniProt Q9NQS5, L336A); experiment: [35S]GTPγS binding assay; format: biochemical
T3 construct: FLAG (N); Gαi2-Cys352Ile (fusion partner) (C); expressed in transfected cells
Experimental: as §1, §2

GPR84 N362S = target: T4, GPR84 N362S (Homo sapiens, UniProt Q9NQS5, N362S); experiment: [35S]GTPγS binding assay; format: biochemical; conditions: for Emax: read-out: Emax ± SEM
T4 construct: FLAG (N); Gαi2-Cys352Ile (fusion partner) (C); expressed in transfected cells
Experimental: as §1, §2

[4] = target: GPR84-WT (GPR84-Gi2α fusion protein) (Homo sapiens, UniProt Q9NQS5); experiment: [35S]GTPγS binding assay; format: biochemical; conditions: for Emax: read-out: Emax ± SEM
Experimental: as §1, §2

[5] = target: T5, GPR84 T167A (GPR84-Gi2α fusion protein) (Homo sapiens, UniProt Q9NQS5, T167A); experiment: [35S]GTPγS binding assay; format: biochemical; conditions: for fold reduction in potency compared to wild type: Thr167Ala; for Emax: read-out: Emax ± SEM
T5 construct: FLAG (N); Gαi2-Cys352Ile (fusion partner) (C); expressed in transfected cells
Experimental: as §1, §2

GPR84 Y332A = target: T6, GPR84 Y332A (Homo sapiens, UniProt Q9NQS5, Y332A); experiment: [35S]GTPγS binding assay; format: biochemical; conditions: for Emax: read-out: Emax ± SEM
T6 construct: FLAG (N); Gαi2-Cys352Ile (fusion partner) (C); expressed in transfected cells
Experimental: as §1, §2

[6] = target: T7, GPR84 N104A (GPR84-Gi2α fusion protein) (Homo sapiens, UniProt Q9NQS5, N104A); experiment: [35S]GTPγS binding assay; format: biochemical; conditions: for fold reduction in potency compared to wild type: Asn104Ala; for Emax: read-out: Emax ± SEM
T7 construct: FLAG (N); Gαi2-Cys352Ile (fusion partner) (C); expressed in transfected cells
Experimental: as §1, §2

[7] = target: T8, GPR84 Y69A (GPR84-Gi2α fusion protein) (Homo sapiens, UniProt Q9NQS5, Y69A); experiment: [35S]GTPγS binding assay; format: biochemical; conditions: for Emax: read-out: Emax ± SEM
T8 construct: FLAG (N); Gαi2-Cys352Ile (fusion partner) (C); expressed in transfected cells
Experimental: as §1, §2

GPR84 Y332F [8] = target: T9, GPR84 Y332F (Homo sapiens, UniProt Q9NQS5, Y332F); experiment: [35S]GTPγS binding assay; format: biochemical; conditions: for Emax: read-out: Emax ± SEM
T9 construct: FLAG (N); Gαi2-Cys352Ile (fusion partner) (C); expressed in transfected cells
Experimental: as §1, §2

[9] = target: Leu336Ala GPR84 (GPR84-Gi2 fusion protein) (Homo sapiens, UniProt Q9NQS5, L336A); experiment: Competition binding assay with orthosteric antagonist [3H]140
Experimental: Binding was initiated by the addition of 5 μg membrane protein generated from Flp-In™ T-REx™ cells induced to express the receptor construct of interest with 100 ng/ml doxycycline. Nonspecific binding of the radioligand was determined in the presence of 10 μM compound 837. All assays were performed at 25 °C for 1 h before termination by the addition of ice-cold phosphate-buffered saline (PBS) and vacuum filtration through GF/C glassfibre filter-bottom 96-well microplates using a UniFilter FilterMate Harvester (Revvity). Each well was washed three times with ice-cold PBS and filters were allowed to dry for 2–3 h before addition of 50 μl of Ultima Gold™ XR. Radioactivity was quantified by liquid scintillation spectrometry.

GPR84 Y332F [10] = target: T9, GPR84 Y332F; experiment: BRET β-arrestin-1 recruitment assay, HEK293T cells; format: cell-based
Experimental: As a control, cells were transfected with 100:1 ratio of empty plasmid and the appropriate arrestin isoform fused to nano-luciferase. After 24 h, cells were seeded at 50,000 cells per well in poly-D-lysine-coated white 96-well plates and incubated at 37°C overnight. After 24 h, cells were washed twice with Hank’s balanced salt solution (HBSS), pH 7.4, and 10 μl/well of the nano-luciferase substrate coelenterazine-h (Nanolight Technologies) was added to a final concentration of 5 μM. Cells were incubated in the dark for 10 min at 37°C, after which 10 μl/well of the agonist compound was added, and the cells were incubated for another 5 minutes. 15 min after coelenterazine-h addition, reading of emission signals were performed on a PHERAstar FS plate reader (BMG Labtech) at 475 and 535 nm, representing nano-luciferase and eYFP emission signals, respectively. The net bioluminescence resonance energy transfer (BRET) ratio (mBRET) was calculated as follows: mBRET=(BRET^sample−BRET^control)*1000whereBRET=Emission^535nm/Emission^475nm

[11] = L336A, read-out: pEC50 ± SEM (converted)

SMILES: [O-][n+]1cc(O)cc(CCc2ccc(Cl)c(C(F)(F)F)c2)c1 [OX04529]
- EC50 ([1]; [35S]GTPγS, S169A): 417 nM
- fold reduced potency compared to wild type ([1]; [35S]GTPγS): ~300 fold
- Emax [1]: 30 ± 2%
- fold reduced potency compared to wild type ([2]; [35S]GTPγS): ~10 fold
- EC50 ([2]; [35S]GTPγS, W360A): 8.71 nM
- Emax [2]: 75 ± 10%
- EC50 [3, 11]: 0.0692 nM
- fold greater potency than at wild type ([3]; Leu336Ala): more than 10 fold
- EC50 ([3]; Leu336Ala, read-out: EC50): ~0.1 nM
- EC50 (GPR84 N362S; [35S]GTPγS, N362S): 16.6 nM
- Emax (GPR84 N362S): 126 ± 30%
- EC50 ([4]; pEC50 ± SEM, [35S]GTPγS, GPR84-WT, Extended Data Table 3): 1.26 nM
- EC50 ([4]; pEC50 ± SEM, [35S]GTPγS, GPR84-WT, Extended Data Tables 1 and 5): 1.17 nM
- Emax [4]: 119 ± 13%
- EC50 ([5]; [35S]GTPγS, T167A): 17.8 nM
- fold reduction in potency compared to wild type ([5]; [35S]GTPγS): greater than 10 fold
- Emax [5]: 82 ± 10%
- EC50 (GPR84 Y332A; [35S]GTPγS, Y332A): 0.347 nM
- Emax (GPR84 Y332A): 50 ± 12%
- fold reduction in potency compared to wild type ([6]; [35S]GTPγS): 5 fold
- EC50 ([6]; [35S]GTPγS, N104A): 3.98 nM
- Emax [6]: 68 ± 8%
- EC50 ([7]; [35S]GTPγS, Y69A): 4.57 nM
- Emax [7]: 94 ± 9%
- EC50 (GPR84 Y332F [8]; [35S]GTPγS, Y332F): 2.57 nM
- Emax (GPR84 Y332F [8]): 134 ± 12%
- Ki [9]: 1.51 nM

SMILES: Cc1cc(CCCc2cc(O)c[n+]([O-])c2)ccc1Cl [OX04954]
- EC50 (GPR84 Y332F [10]): 50.1 nM
- Emax (GPR84 Y332F [10]; HEK-293T): 40 ± 4%
- EC50 ([1]; [35S]GTPγS, S169A): 380 nM
- Emax ([1]; [35S]GTPγS, S169A): 47 ± 11%
- fold reduced potency compared to wild type ([1]; [35S]GTPγS): more than 1000 fold
- fold reduced potency compared to wild type ([2]; [35S]GTPγS): ~10 fold
- EC50 ([2]; [35S]GTPγS, W360A): 13.5 nM
- Emax ([2]; [35S]GTPγS, W360A): 75 ± 8%
- EC50 [3, 11]: 0.0427 nM
- EC50 (GPR84 N362S; [35S]GTPγS, N362S): 24 nM
- Emax (GPR84 N362S; [35S]GTPγS, N362S): 124 ± 19%
- EC50 ([4]; [35S]GTPγS, GPR84-WT, Extended Data Table 3, read-out: pEC50 ± SEM (converted)): 0.661 nM
- Emax ([4]; [35S]GTPγS, GPR84-WT, Extended Data Tables 1 and 5): 129 ± 12%
- EC50 ([4]; [35S]GTPγS, GPR84-WT, Extended Data Tables 1 and 5, read-out: pEC50 ± SEM (converted)): 0.661 nM
- EC50 ([5]; [35S]GTPγS, T167A): 15.1 nM
- Emax ([5]; [35S]GTPγS, T167A): 129 ± 15%
- fold reduction in potency compared to wild type ([5]; [35S]GTPγS): ~10 fold
- EC50 (GPR84 Y332A; [35S]GTPγS, Y332A): 0.427 nM
- Emax (GPR84 Y332A; [35S]GTPγS, Y332A): 60 ± 11%
- fold reduction in potency compared to wild type ([6]; [35S]GTPγS): ~10 fold
- EC50 ([6]; [35S]GTPγS, N104A): 11.7 nM
- Emax ([6]; [35S]GTPγS, N104A): 130 ± 20%
- EC50 ([7]; [35S]GTPγS, Y69A): 5.13 nM
- Emax ([7]; [35S]GTPγS, Y69A): 106 ± 4%
- EC50 (GPR84 Y332F [8]; [35S]GTPγS, Y332F): 4.17 nM
- Emax (GPR84 Y332F [8]; [35S]GTPγS, Y332F): 151 ± 10%
